Experimental data published in patent US20220323594A1, “LIPIDATED CATIONIC PEPTIDE-PEG COMPOSITIONS FOR NUCLEIC ACID DELIVERY” (NUTCRACKER THERAPEUTICS, INC., priority 2019, published 2022).

Test: MTT viability assay after treatment with Fluc mRNA/amino lipidated peptoid formulations
Type: cell-based
Settings: human, HeLa cells
Method: Cellular viability was measured following treatment with Fluc mRNA/amino lipidated peptoid formulations by a traditional MTT viability assay. […] In this assay, cells were first treated with peptoid formulations at a final mRNA concentration of 100 ng/well for 8 hours. Cells were then left to grow for 48 hours, after which time they were exposed to 1.5 mg/mL 3-(4,5-dimethylthiazol-2-yl)-2,5-diphenyltetrazolium bromide (MTT) for 2 hours, then lysed using a solubilizing solution of 10% Triton-X 100 in acidic isopropanol (0.1N HCl). The signal corresponding to reduced formazan was normalized to untreated cells to provide a relative viability of each treated condition. […] In general, nearly all conditions maintained at least 80% viability with the only exceptions being formulations of compound 5, 34, and 35.

## CCCCCCCCCCN(CC(N)=O)C(=O)CN(CCCCCCCCCC)C(=O)CN(CCCCCCCCCC)C(=O)CN(CCCCCCCCCC)C(=O)CN(CCc1ccccc1)C(=O)CN(CCc1ccccc1)C(=O)CN(CCN)C(=O)CN(CCc1ccccc1)C(=O)CN(CCc1ccccc1)C(=O)CN(CCN)C(=O)CN(CCc1ccccc1)C(=O)CN(CCc1ccccc1)C(=O)CNCCN [Compound 8]
Relative Viability (%) 2% PEG
  viability at 8 h, 500 ng/well: 97.3%
Relative Viability (%) No PEG
  viability at 8 h, 500 ng/well: 92%

## CCCCCCCCCCN(CC(N)=O)C(=O)CN(CCCCCCCCCC)C(=O)CN(CCc1ccccc1)C(=O)CN(CCc1ccccc1)C(=O)CN(CCN)C(=O)CN(CCc1ccccc1)C(=O)CN(CCc1ccccc1)C(=O)CN(CCN)C(=O)CN(CCc1ccccc1)C(=O)CN(CCc1ccccc1)C(=O)CN(CCN)C(=O)CN(CCc1ccccc1)C(=O)CN(CCc1ccccc1)C(=O)CN(CCN)C(=O)CN(CCc1ccccc1)C(=O)CN(CCc1ccccc1)C(=O)CNCCN [Compound 12]
Relative Viability (%) 2% PEG
  viability at 8 h, 500 ng/well: 104%
Relative Viability (%) No PEG
  viability at 8 h, 500 ng/well: 98.5%

## CCCCCCCCCCN(CC(N)=O)C(=O)CN(CCCCCCCCCC)C(=O)CN(CCCCCCCCCC)C(=O)CN(CCCCCCCCCC)C(=O)CN(CCCCCCCCCC)C(=O)CN(CCc1ccccc1)C(=O)CN(CCc1ccccc1)C(=O)CN(CCN)C(=O)CN(CCc1ccccc1)C(=O)CN(CCc1ccccc1)C(=O)CN(CCN)C(=O)CN(CCc1ccccc1)C(=O)CN(CCc1ccccc1)C(=O)CNCCN [Compound 19]
Relative Viability (%) 2% PEG
  viability at 8 h, 500 ng/well: 94.8%
Relative Viability (%) No PEG
  viability at 8 h, 500 ng/well: 87.1%

## CCCCCCCCCCN(CC(N)=O)C(=O)CN(CCCCCCCCCC)C(=O)CN(CCCCCCCCCC)C(=O)CN(CCCCCCCCCC)C(=O)CN(CCCCCCCCCC)C(=O)CN(CCc1ccccc1)C(=O)CN(CCc1ccccc1)C(=O)CN(CCN)C(=O)CN(CCc1ccccc1)C(=O)CN(CCc1ccccc1)C(=O)CN(CCN)C(=O)CN(CCc1ccccc1)C(=O)CN(CCc1ccccc1)C(=O)CN(CCN)C(=O)CN(CCc1ccccc1)C(=O)CN(CCc1ccccc1)C(=O)CNCCN [Compound 21]
Relative Viability (%) 2% PEG
  viability at 8 h, 500 ng/well: 109%
Relative Viability (%) No PEG
  viability at 8 h, 500 ng/well: 91.3%

## CCCCCCCCCCN(CC(=O)N(CC(=O)N(CCCCCCCCCC)CC(=O)N(CC(N)=O)CC(CC)CCCC)CC(CC)CCCC)C(=O)CN(CCc1ccccc1)C(=O)CN(CCc1ccccc1)C(=O)CN(CCN)C(=O)CN(CCc1ccccc1)C(=O)CN(CCc1ccccc1)C(=O)CN(CCN)C(=O)CN(CCc1ccccc1)C(=O)CN(CCc1ccccc1)C(=O)CNCCN (stereo not drawn) [Compound 24]
Relative Viability (%) 2% PEG
  viability at 8 h, 500 ng/well: 112%
Relative Viability (%) No PEG
  viability at 8 h, 500 ng/well: 92%

## CCCCCCCCCCN(CC(N)=O)C(=O)CN(CCCCCCCCCC)C(=O)CN(CCCCCCCCCC)C(=O)CN(CCCCCCCCCC)C(=O)CN(CCc1ccccc1)C(=O)CN(CCc1ccccc1)C(=O)CN(CCCN)C(=O)CN(CCc1ccccc1)C(=O)CN(CCc1ccccc1)C(=O)CN(CCCN)C(=O)CN(CCc1ccccc1)C(=O)CN(CCc1ccccc1)C(=O)CN(CCCN)C(=O)CN(CCc1ccccc1)C(=O)CN(CCc1ccccc1)C(=O)CNCCCN [Compound 29]
Relative Viability (%) 2% PEG
  viability at 8 h, 500 ng/well: 94%
Relative Viability (%) No PEG
  viability at 8 h, 500 ng/well: 85.9%

## CCCCCCCCCCN(CC(N)=O)C(=O)CN(CCCCCCCCCC)C(=O)CN(CCCCCCCCCC)C(=O)CN(CCCCCCCCCC)C(=O)CN(CCc1ccccc1)C(=O)CN(CCc1ccccc1)C(=O)CN(CC1CCCN1)C(=O)CN(CCc1ccccc1)C(=O)CN(CCc1ccccc1)C(=O)CN(CC1CCCN1)C(=O)CN(CCc1ccccc1)C(=O)CN(CCc1ccccc1)C(=O)CNCC1CCCN1 (stereo not drawn) [Compound 34]
Relative Viability (%) 2% PEG
  viability at 8 h, 500 ng/well: 106%
Relative Viability (%) No PEG
  viability at 8 h, 500 ng/well: 67.6%
viability
  viability at 8 h, 500 ng/well: < 80%

## CCCCCCCCCCN(CC(N)=O)C(=O)CN(CCCCCCCCCC)C(=O)CN(CCCCCCCCCC)C(=O)CN(CCCCCCCCCC)C(=O)CN(CCc1ccccc1)C(=O)CN(CCc1ccccc1)C(=O)CN(CC1CCCN1)C(=O)CN(CCc1ccccc1)C(=O)CN(CCc1ccccc1)C(=O)CN(CC1CCCN1)C(=O)CN(CCc1ccccc1)C(=O)CN(CCc1ccccc1)C(=O)CN(CC1CCCN1)C(=O)CN(CCc1ccccc1)C(=O)CN(CCc1ccccc1)C(=O)CNCC1CCCN1 (stereo not drawn) [Compound 35]
Relative Viability (%) 2% PEG
  viability at 8 h, 500 ng/well: 105%
Relative Viability (%) No PEG
  viability at 8 h, 500 ng/well: 74.8%
viability
  viability at 8 h, 500 ng/well: < 80%
